“And” between values parts separate entries of the source, which are not always exact repeats. Identical values can stand only once. Like-named read-outs stand apart in the source and are kept apart here.
Molecular target: T1, GPR139 (Homo sapiens, UniProt Q6DWJ6)
T1 sequence (Q6DWJ6 1-353): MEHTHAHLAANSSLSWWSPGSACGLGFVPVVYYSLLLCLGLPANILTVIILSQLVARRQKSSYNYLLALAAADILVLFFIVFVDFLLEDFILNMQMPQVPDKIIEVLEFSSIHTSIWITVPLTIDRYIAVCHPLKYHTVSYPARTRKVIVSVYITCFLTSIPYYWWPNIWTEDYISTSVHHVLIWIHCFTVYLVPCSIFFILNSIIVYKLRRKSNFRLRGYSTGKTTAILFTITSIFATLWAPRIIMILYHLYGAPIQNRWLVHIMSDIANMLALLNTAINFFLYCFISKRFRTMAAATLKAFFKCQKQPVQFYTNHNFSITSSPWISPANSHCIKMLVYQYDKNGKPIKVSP
Experiment: Ca2+ mobilization assay, agonist mode, stable GPR139-CHOk1 cell line
Assay type: cell-based
Conditions: for Emax: normalized to Lundbeck Cmp 1a, read-out: Emax (%) Ca2+
Method in brief: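 Agonist activity of compounds is assessed in stably transfected CHO-K1 cells using the calcium dye Fluo-4 at 37 °C in HEPES-buffered HBSS (pH 7.4). Efficacy is expressed relative to the reference agonist Lundbeck Cmp 1a, set as 100%.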

[1] = Agonist mode, individual replicates (Supplementary Figure 4)
[2] = Supplementary Table 2, mean ± SEM
[3] = log [Compound] M = -4.5, individual replicate columns
[4] = log [Compound] M = -5.0, individual replicate columns
[5] = log [Compound] M = -5.5, individual replicate columns
[6] = log [Compound] M = -6.0, individual replicate columns
[7] = log [Compound] M = -6.5, individual replicate columns
[8] = log [Compound] M = -7.0, individual replicate columns
[9] = log [Compound] M = -7.5, individual replicate columns
[10] = log [Compound] M = -8.0, individual replicate columns
[11] = log [Compound] M = -8.5, individual replicate columns
[12] = log [Compound] M = -9.0, individual replicate columns
[13] = Supplementary Table 2, mean ± SEM, read-out: pEC50 Ca2+ (converted)

| EC50 (GPR139-CHOk1, read-out: EC50, Ca2+ mobilization) [nM] | Emax [2] [%] | EC50 [13] [nM] | SMILES | Ca2+ signal (% of Cmp 1a) [1] | Ca2+ signal (% of Cmp 1a) [3] | Ca2+ signal (% of Cmp 1a) [4] | Ca2+ signal (% of Cmp 1a) [5] | Ca2+ signal (% of Cmp 1a) [6] | Ca2+ signal (% of Cmp 1a) [7] | Ca2+ signal (% of Cmp 1a) [8] | Ca2+ signal (% of Cmp 1a) [9] | Ca2+ signal (% of Cmp 1a) [10] | Ca2+ signal (% of Cmp 1a) [11] | Ca2+ signal (% of Cmp 1a) [12] |
| --- | --- | --- | --- | --- | --- | --- | --- | --- | --- | --- | --- | --- | --- | --- |
| 130 | 103 ± 6 |  | Cc1nocc1-c1nc(CC(=O)NC(C)c2ccccc2)no1 (stereo not drawn) [Compound 1.5, CC(C1=CC=CC=C1)NC(CC2=NOC(C3=CON=C3C)=N2)=O] | 113 % of Cmp 1a and 100 % of Cmp 1a and 116 % of Cmp 1a | 80 % of Cmp 1a and 113 % of Cmp 1a and 109 % of Cmp 1a and 101 % of Cmp 1a | 104 % of Cmp 1a and 119 % of Cmp 1a and 100 % of Cmp 1a and 95 % of Cmp 1a | 91 % of Cmp 1a and 108 % of Cmp 1a and 100 % of Cmp 1a and 85 % of Cmp 1a | 78 % of Cmp 1a and 79 % of Cmp 1a and 91 % of Cmp 1a and 81 % of Cmp 1a | 55 % of Cmp 1a and 74 % of Cmp 1a and 73 % of Cmp 1a and 76 % of Cmp 1a | 36 % of Cmp 1a and 45 % of Cmp 1a and 52 % of Cmp 1a and 57 % of Cmp 1a | 14 % of Cmp 1a and 3.67 % of Cmp 1a and 9 % of Cmp 1a and 12 % of Cmp 1a | 17 % of Cmp 1a and 2 % of Cmp 1a and 47 % of Cmp 1a and -11 % of Cmp 1a | 10 % of Cmp 1a and -6.33 % of Cmp 1a and 1 % of Cmp 1a and -17 % of Cmp 1a | -2.67 % of Cmp 1a and 0.333 % of Cmp 1a and -5 % of Cmp 1a and -15 % of Cmp 1a |
|  | 113 ± 9 | 200 | COc1cc(-c2nc(CC(=O)NC(C)c3ccccc3)no2)ccn1 (stereo not drawn) [Compound 1.7, COC1=NC=CC(C2=NC(CC(NC(C3=CC=CC=C3)C)=O)=NO2)=C1] | 105 % of Cmp 1a and 108 % of Cmp 1a and 111 % of Cmp 1a | 109 % of Cmp 1a and 102 % of Cmp 1a and 120 % of Cmp 1a | 102 % of Cmp 1a and 110 % of Cmp 1a and 134 % of Cmp 1a | 95 % of Cmp 1a and 141 % of Cmp 1a and 154 % of Cmp 1a | 70 % of Cmp 1a and 89 % of Cmp 1a and 113 % of Cmp 1a | 61 % of Cmp 1a and 84 % of Cmp 1a and 68 % of Cmp 1a | 40 % of Cmp 1a and 48 % of Cmp 1a and 53 % of Cmp 1a | 13 % of Cmp 1a and 22 % of Cmp 1a and 34 % of Cmp 1a | 1.88 % of Cmp 1a and 6 % of Cmp 1a and 10 % of Cmp 1a | 4.28 % of Cmp 1a and 11 % of Cmp 1a and 7 % of Cmp 1a | -0.46 % of Cmp 1a and 10 % of Cmp 1a and 7 % of Cmp 1a |
|  | 93 ± 11 | 631 | Cc1cc(-c2nc(CC(=O)NC(C)c3ccccc3)no2)n(C)n1 (stereo not drawn) [Compound 1.16, CC(C1=CC=CC=C1)NC(CC2=NOC(C3=CC(C)=NN3C)=N2)=O] | 103 % of Cmp 1a and 82 % of Cmp 1a and 85 % of Cmp 1a | 93 % of Cmp 1a and 107 % of Cmp 1a and 110 % of Cmp 1a and 60 % of Cmp 1a | 86 % of Cmp 1a and 100 % of Cmp 1a and 83 % of Cmp 1a and 67 % of Cmp 1a | 73 % of Cmp 1a and 90 % of Cmp 1a and 92 % of Cmp 1a and 46 % of Cmp 1a | 52 % of Cmp 1a and 66 % of Cmp 1a and 72 % of Cmp 1a and 20 % of Cmp 1a | 27 % of Cmp 1a and 50 % of Cmp 1a and 60 % of Cmp 1a and -0.5 % of Cmp 1a | 9 % of Cmp 1a and 39 % of Cmp 1a and 26 % of Cmp 1a and -9.5 % of Cmp 1a | 0.333 % of Cmp 1a and 7 % of Cmp 1a and 17 % of Cmp 1a and 1.5 % of Cmp 1a | -3 % of Cmp 1a (2×) and -1 % of Cmp 1a and 9 % of Cmp 1a | 0 % of Cmp 1a and -5 % of Cmp 1a and 15 % of Cmp 1a and -2.5 % of Cmp 1a | 1.67 % of Cmp 1a and -3 % of Cmp 1a and 20 % of Cmp 1a and -7 % of Cmp 1a |
